# Test results from patent US20090068143A1, “ORALLY EFFECTIVE C[…]” (priority 2005, published 2009).
# How the values were obtained:
# [1] = target: CB2 receptor (Homo sapiens, UniProt P34972); experiment: CB2 binding assay
# [2] = Stability in aqueous solutions; format: physicochemical; conditions: 95 μg/ml in citrate buffer (pH 7.1), 4° C.
# Procedure: Stability of compounds of the invention in aqueous solutions was compared. Compounds were dissolved in buffer phosphate solutions and their concentration monitored using HPLC and spectrophotometer methodology. While compound 18F at concentration of 2 mg/ml in phosphate buffer (pH 7.0) was stable for at least 3 months at 4° C., compound 18B at concentration of 95 μg/ml in citrate buffer (pH 7.1) readily hydrolyzed in less than 24 hours at 4° C. Therefore, compounds that were designed following the same rational yielded unexpectedly divergent outcome, for instance in connection with stability in aqueous solutions.
# [3] = Actual solubility in aqueous buffers / cosolvent (HPLC, spectrophotometer); format: physicochemical
# Procedure: The actual solubility of certain compounds of the invention was assessed in aqueous buffers and final concentration of compounds was determined using HPLC and spectrophotometer methodologies. […] Therefore, compounds that were designed following the same rational yielded unexpectedly divergent outcome, for instance in connection with solubility in aqueous solutions.
# It should be noted that following lyophilization compound 18F could be dissolved in 80 mM phosphate buffer at pH 6.9 even more efficiently at concentrations up to 60 mg/ml, about two order of magnitudes higher than expected.
# Approximately 11 g of compound 18F were lyophilized in one lyophilization cycle. A cosolvent mixture comprising 38.6% w/v of compound 18F was divided into several dishes to fit the lyophilization chamber. As a result of lyophilization, a dry product with improved physical properties such as flowability and less stickiness was obtained.
# [4] = test system: visceral pain; experiment: Visceral pain, acetic acid induced writhing responses; format: in vivo, ICR mice; conditions: for inhibition of writhing responses as compared to vehicle treated group: 2 mg/kg i.v.
# Procedure: For the i.v. part of the study, compounds were dissolved in CREMOPHOR®:Ethanol and diluted 1:20 in saline prior to injection, fifteen minutes before pain induction. When compounds were delivered per os, they were dissolved in phosphate buffer or in CREMOPHOR®:Ethanol as previously described and administered 1 hour before pain induction. Each treatment group, except for controls comprising at least 30 animals, was composed of at least 6 animals. Fifteen or sixty minutes later, depending on the route selected for drug administration, the mice were injected i.p. with 10 ml/kg of 0.6% acetic acid and the number of visceral pain related behaviors (writhing, stretching, contractions of the abdomen accompanied by an elongation of the body and extension of the hind limbs) is counted over a period of 5 minutes, starting 5 minutes after the acetic acid administration. These visceral pain related behaviors are globally defined as writhing responses (WR). The results are expressed as mean number of writhing responses±SEM. Data were analyzed using analysis of variance (ANOVA) followed by post-hoc Fisher test. A value of p<0.05 was considered to be statistically significant and is indicated on the figure by an asterisk over the relevant treatment group.
# The following results were obtained at 2 mg/kg i.v. of test compounds or, in the case of the study performed with cannabinoid receptor antagonists, 1 mg/kg test compound or antagonist alone and 1 mg/kg test compound+1 mg/kg antagonist. In a separate study, it was shown that analgesic activity of compounds of the invention was dose related.
# [5] = test system: iNOS; experiment: iNOS gene expression in LPS activated RAW 264.7 macrophages (real-time RT-PCR); format: cell-based, mouse; conditions: for inhibition of iNOS gene expression: 10 μM, 1 h pre-treatment, 3 hrs after LPS activation
# Procedure: (§1) RAW 264.7 macrophages, a mouse cell line (ATCC # TIB 71), were grown in Dulbecco's modified Eagle's medium (DMEM) with 4 mM L-glutamine adjusted to contain 1.5 g/L sodium bicarbonate, 4.5 g/L glucose, and 10% heat inactivated fetal bovine serum. Cells were grown in tissue culture flasks and seeded at appropriate density into 6 wells tissue culture plates. Four million Raw cells in half a milliliter were stimulated with 1 μg/ml Lipopolysaccharide E. coli 055:B5 (DIFCO Laboratories). The mouse macrophages were pre-treated for one hour with controls or 10 μM of test compounds, and later on activated with LPS. RNA samples were extracted from the cells 3 hrs after activation and iNOS gene expression levels were analyzed by real-time RT-PCR as previously described. For western blot analysis, compounds were tested at 1, 5 and 10 μM and cells were harvested 24 hrs after LPS stimulation. Supernatant were collected and NO secretion was analyzed using ELISA. Cells were washed 3 times with cold PBS, scrapped and lyzed in 100 μl cell lysis buffer containing 20 mM HEPES, pH 7.6, 150 mM NaCl, 1.5 mM MgCl2, 0.2 mM EDTA, 1% Triton X-100, 10% glycerol, 1 mM DTT, 1 mM PMSF, 10 μg/ml aprotinin. 5 µg/ml leupeptin, 10 mM p-nitrophenyl phosphate, 100 mM β-glycerophosphate, 1 mM sodium fluoride, and 0.1 μM sodium orthovanadate. Cells were lyzed on ice for 10 minutes before further processing.
# The results of this experiment are expressed as fold activation of iNOS over non-activated macrophages, after normalization to cyclophilin A expression. Compound 18A inhibits 63% of iNOS gene expression, and compounds 18B, 18E and 18F inhibit 55%, 25% and 100% respectively. […] This surprising observation strengthen the fact that compounds of the invention, though chemically related, have distinct and unexpected properties.
# [6] = target: CB1 receptor (Homo sapiens, UniProt P21554); experiment: CB1 binding assay
# CB1 receptor, sequence (P21554 whole entry): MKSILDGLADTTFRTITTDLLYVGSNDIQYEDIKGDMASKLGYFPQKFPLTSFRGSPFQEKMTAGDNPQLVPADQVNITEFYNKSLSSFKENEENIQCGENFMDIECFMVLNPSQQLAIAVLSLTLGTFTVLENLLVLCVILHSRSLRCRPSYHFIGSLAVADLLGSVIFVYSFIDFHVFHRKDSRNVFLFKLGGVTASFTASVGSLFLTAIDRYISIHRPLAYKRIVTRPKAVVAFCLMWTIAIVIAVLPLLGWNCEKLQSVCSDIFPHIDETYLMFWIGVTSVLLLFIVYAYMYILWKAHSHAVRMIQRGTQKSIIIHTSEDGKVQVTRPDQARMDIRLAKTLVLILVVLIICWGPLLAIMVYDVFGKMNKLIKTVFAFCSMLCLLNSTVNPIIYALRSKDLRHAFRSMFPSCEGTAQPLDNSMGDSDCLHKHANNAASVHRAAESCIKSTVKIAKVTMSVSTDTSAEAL
# [7] = test system: iNOS; experiment: iNOS protein expression in activated macrophages (western blot); format: cell-based, mouse; conditions: 1, 5 and 10 μM, 24 hrs after LPS stimulation
# Procedure: as §1, with “Cells were washed 3 times with cold PBS, scrapped and lyzed in 100 μl cell lysis buffer containing 20 mM HEPES, pH 7.6, 150 mM NaCl, 1.5 mM MgCl2, 0.2 mM EDTA, 1% Triton X-100, 10% glycerol, 1 mM DTT, 1 mM PMSF, 10 μg/ml aprotinin. 5 µg/ml leupeptin, 10 mM p-nitrophenyl phosphate, 100 mM β-glycerophosphate, 1 mM sodium fluoride, and 0.1 μM sodium orthovanadate. Cells were lyzed on ice for 10 minutes before further processing.” left out
# To assess correlation between gene expression and protein expression, protein extracts were prepared from the various treated activated macrophages. […] Primary antibodies against cyclophilin A were used as control (Upstate, Cat# 07-313), and the amount of iNOS was assessed using NOS2 (C11) Santa Cruz antibodies (Cat# SC-7271) were hybridized for 2 hours at room temperature. […]
# [8] = test system: RAW 264.7 macrophages; experiment: NO secretion of LPS activated RAW 264.7 macrophages (ELISA); format: cell-based; conditions: Mus musculus, RAW264.7, 24 hrs after LPS stimulation
# Procedure: as §1, with “processing. […]” for “processing.”
# [9] = test system: MBP induced acute EAE; experiment: MBP induced acute EAE; format: in vivo, Lewis rats; conditions: 0.5-1 mg/kg i.v., 3 days after clinical onset
# Procedure: In the present study, EAE was induced by injection of Myelin Basic Protein (MBP), a method known to model the acute phase of MS. In this model the onset of the disease is observed by the appearance of clinical symptoms about 10 days after induction. The disease progresses and the clinical score increases and peaks around day 15 and spontaneous recovery is observed around day 23 after induction of the disease.
# Female Lewis rats (average body weight 130-180 g, Harlan, Israel) were injected s.c. into the hind paws with 25 μg of purified guinea pig myelin basic protein (MBP, Sigma) emulsified in 0.1 ml of Complete Freund's Adjuvant (Difco). Animals were maintained on a 12 hours light/12 hours dark regimen, at a constant temperature of 22° C., with food and water ad libitum. Starting from day 8 following induction, animals were followed up on a daily basis. The results are recorded as clinical score; score of 0 indicates a normal animal with no clinical signs, 0.5 indicates a loss of tonicity in the tail's distal part, 1 indicates whole tail paralysis, 1.5 indicates hind legs weakness in one leg, 2 indicates hind legs weakness in two legs, 2.5 indicates fore legs paralysis in one leg, 3 indicates paralysis of all four legs, 4 indicates complete body paralysis and moribund state and 5 indicates death. The clinical score of the animals is recorded for 15 days following onset of disease until the end of the study 25 days following induction and the area under the curve (AUC) is calculated over this period of time.
# Few routes of administration were assessed and the treatments were either administered intravenously (in CE vehicle) or orally by gavage (in PB vehicle) at volume dose of 5 ml/kg.
# Results are expressed as mean±SEM and the differences between the treatment groups were analyzed by analysis of variance (ANOVA) followed by Tukey's post hoc test. A value of p<0.05 was considered to be statistically significant and is indicated on the figure by an asterisk over the relevant treatment group.
# Compound 18A was dissolved in CREMOPHOR EL®:ethanol and further diluted in physiological buffer prior to i.v. administration. It is now disclosed that compound 18F could be dissolved directly in 80 mM phosphate buffer (pH 6.4) and administered p.o. Compound 18F was administered by oral gavage at doses of 20, 30, 40, 50 and 60 mg/kg to animals showing clinical signs of the disease. Each treatment group comprised at least 10 animals at onset of disease. At some doses, experiments were repeated up to four times.
# [10] = test system: Taxol® induced neuropathic pain; experiment: Taxol® induced neuropathic pain; format: in vivo, Sprague Dawley rats; conditions: gabapentin 100 mg/kg i.p., morphine 5 mg/kg i.p.; not statistically significant
# Procedure: Male Sprague Dawley rats (average body weight 150-200 g, Harlan, Israel) were administered i.p. with 6 mg/kg Taxol® (Bristol Myers Squibb, USA) every other day for 9 days. On day 13, baseline pain threshold was measured. One hour later, the animals were administered with 5 ml/kg i.p. of vehicle (PB) only and pain threshold was re-established. After an additional hour animals were treated with various doses of compound 18F ranging from 0.5 mg/kg up to 10 mg/kg administered i.p. Morphine at 5 mg/kg i.p. and gabapentin at 100 mg/kg i.p served as positive controls. Each treatment group comprised at least eight animals. One hour post drug administration pain threshold was monitored using thermal and mechanical stimuli as previously described. At the end of the study, rats were euthanized with sodium pentobarbitone 100 mg/kg i.p. Sample rats were then transfused with saline and heparinized 4% formaldehyde solution. The L4-L5 area of the spinal cord and the sciatic nerve were taken for histopathology assessment.
# The time latencies for thermal hyperalgesia, and force needed to induce pain of the different treatment groups are compared, using one way ANOVA (analysis of variance), followed by Duncan's post hoc test. A p<0.05 value was considered statistically significant and is indicated on the figure by an asterisk over the relevant treatment group.
# [11] = test system: EAE; conditions: 40 mg/kg p.o. daily for 21 days from disease induction, cited from earlier work
# CB2 receptor, sequence (P34972 whole entry): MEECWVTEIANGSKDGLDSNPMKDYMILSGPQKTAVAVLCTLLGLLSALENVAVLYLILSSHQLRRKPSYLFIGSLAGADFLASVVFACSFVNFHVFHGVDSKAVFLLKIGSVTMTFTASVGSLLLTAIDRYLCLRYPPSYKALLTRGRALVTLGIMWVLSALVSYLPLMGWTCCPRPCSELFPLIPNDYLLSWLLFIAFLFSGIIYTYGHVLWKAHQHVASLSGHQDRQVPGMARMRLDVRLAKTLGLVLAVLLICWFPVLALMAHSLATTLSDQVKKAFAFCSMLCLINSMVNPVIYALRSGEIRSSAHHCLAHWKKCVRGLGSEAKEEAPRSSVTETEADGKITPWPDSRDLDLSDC
smiles,measurement,setting,value
"CCCCCCC(C)(C)c1cc(O)c([C@H]2CC(=O)C3CC2C3(C)C)c(OC(=O)CCC(=O)O)c1 (single isomer, unassigned; (-)) [Compound 18B, (−)-4-{4-[1,1-dimethylheptyl]-2-succinate-6-hydroxy-phenyl}-6,6-dimethyl-bicyclo[3.1.1]heptan-2-one]",IC50,[1],1.2 nM
same,time to hydrolysis in solution,[2],less than 24 hours
same,divergence of solubility from prediction,[3]; aqueous citrate buffer (pH 7.1) vs calculated,< 4 fold
same,solubility,"[3]; aqueous citrate buffer, pH 7.1, aqueous buffer, thermodynamic from solid, aqueous citrate buffer (pH 7.1), read-out: actual solubility",≤ 95 µg/mL
same,inhibition of writhing responses as compared to vehicle treated group,[4],95%
same,inhibition of pain response as compared to untreated animals,[4]; 10 mg/kg p.o. in phosphate buffer,88%
same,inhibition of iNOS gene expression,[5],55%
same,IC50,[6],41 nM
"CCCCCCC(C)(C)c1cc(O)c([C@H]2CC(=O)[C@H]3C[C@@H]2C3(C)C)c(O)c1 [Compound 18A, (−)-4-[4-(1,1-Dimethylheptyl)-2,6-dihydroxy-phenyl]-6,6-dimethyl-bicyclo[3.1.1]heptan-2-one]",IC50,[1],1 nM
same,iNOS protein band (western blot),[7],clear dose dependent disappearance of iNOS protein band
same,inhibition of the number of writhing responses,[4]; 1 mg/kg i.v.,90%
same,effect of addition of CB1 antagonist on analgesic activity,[4]; 1 mg/kg i.v. + 1 mg/kg SR141716A,totally blocked
same,effect of addition of CB2 antagonist on analgesic activity,[4]; 1 mg/kg i.v. + 1 mg/kg SR144528,did not affect
same,inhibition of writhing responses as compared to vehicle treated group,[4],total inhibition
same,inhibition of writhing responses,[4]; 10 mg/kg p.o. in CREMOPHOR®:Ethanol,70%
same,inhibition at 10 µM,[8],63%
same,effect of CB1 or CB2 antagonists on iNOS inhibiting activity,[5]; 5 μM of SR-141716 and SR-144528,reversed by co-administration of either CB1 or CB2 antagonists
same,inhibition of iNOS gene expression,[5],63%
same,reduction in AUC of clinical score,[9],30-35%
same,IC50,[6],27.6 nM
"NCC1(CC(=O)O)CCCCC1 [Gabapentin, reference compound]",effect on pain threshold,[10],trend of increasing the pain threshold
same,activity in visceral pain model,"[4]; fumaric acid up to 5 mg/kg, Gabapentin up to 200 mg/kg, celecoxib up to 10 mg/kg",inactive
"CN1CC[C@]23c4c5ccc(O)c4O[C@H]2[C@@H](O)C=C[C@H]3[C@H]1C5 [morphine, reference compound]",effect on pain threshold,[10],trend of increasing the pain threshold
"CCCCCc1cc(O)c2c(c1)OC(C)(C)[C@@H]1CC=C(C)C[C@@H]21 [Δ^8-THC, reference compound]",decrease of mean disease severity,[11],20%
same,mean disease severity,[11]; vehicle 5.5±0.8,4.4±0.8
same,solubility in aqueous buffer,[3]; in words,not soluble in aqueous buffer
same,decrease of number of writhing responses as compared to the untreated group,"[4]; 10 mg/kg p.o. in CREMOPHOR®:Ethanol, not statistically significant vs vehicle",47%
